# Active and inactive are the calls of the source. The rule behind the calls is not given here.
# Tests used:
# [1] = Stability in mouse liver microsomes assessed as intrinsic clearance incubated for 60 mins by HPLC analysis; format: ADME, Microsome; conditions: read-out: CLH
# [2] = Selectivity ratio, ratio of IC50 for antiproliferative activity against human HT-1080 cells to IC50 for antiproliferative activity against human HT-1080 cells expressing CYP1A1; format: functional
# [3] = biological target: T1, Cytochrome P450 1A1 (Homo sapiens, UniProt P04798); assay: Binding affinity to human CYP1A1 assessed as inhibition of conversion of 7-ethoicyresorufin into fluorescent resorufin by measuring inhibition constant preincubated for 5 mins followed by […] addition measured every minute for 15 mins by EROD assay; format: ADME
# T1 sequence (P04798 whole entry): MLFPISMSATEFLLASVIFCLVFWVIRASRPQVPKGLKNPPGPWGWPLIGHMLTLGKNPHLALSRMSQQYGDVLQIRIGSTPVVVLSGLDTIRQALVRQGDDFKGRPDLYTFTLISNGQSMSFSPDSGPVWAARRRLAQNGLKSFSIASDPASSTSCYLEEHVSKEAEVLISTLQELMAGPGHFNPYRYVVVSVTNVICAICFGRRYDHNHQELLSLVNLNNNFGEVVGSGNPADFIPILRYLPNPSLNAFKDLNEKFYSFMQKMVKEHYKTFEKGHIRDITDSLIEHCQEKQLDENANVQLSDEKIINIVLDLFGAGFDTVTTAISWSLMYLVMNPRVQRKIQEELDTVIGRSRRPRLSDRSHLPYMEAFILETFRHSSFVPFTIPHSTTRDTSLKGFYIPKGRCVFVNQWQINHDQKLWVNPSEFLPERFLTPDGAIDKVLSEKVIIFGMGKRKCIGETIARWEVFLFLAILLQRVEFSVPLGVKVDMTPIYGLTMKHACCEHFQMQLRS
# [4] = test system: MCF7; assay: Induction of cell cycle arrest in human MCF7 cells expressing CYP1A1 assessed as accumulation of cells at G2/M phase at 1100 nM incubated for 48 hrs by DAPI staining based flow cytometric analysis (reference value: 16+/-2 %); format: functional
# [5] = test system: MCF7; assay: Antiproliferative activity against human MCF7 cells expressing CYP1A1 assessed as cell growth inhibition incubated for 48 hrs by sulforhodamine B assay; format: functional, cell-based; conditions: MCF7, 48 h
# [6] = Selectivity ratio, ratio of IC50 for antiproliferative activity against human HT-29 cells to IC50 for antiproliferative activity against human MCF7 cells expressing CYP1A1; format: functional
# [7] = test system: HT-1080; assay: Antiproliferative activity against human HT-1080 cells assessed as cell growth inhibition incubated for 48 hrs by sulforhodamine B assay; format: functional, cell-based; conditions: HT-1080, 48 h
# [8] = Selectivity ratio, ratio of IC50 for antiproliferative activity against human HT-1080 cells transfected with empty vector to IC50 for antiproliferative activity against human HT-1080 cells expressing CYP1A1; format: functional
# [9] = test system: M21; assay: Antiproliferative activity against human M21 cells assessed as cell growth inhibition incubated for 48 hrs by sulforhodamine B assay; format: functional, cell-based; conditions: M21, 48 h
# [10] = Stability in rat liver microsomes assessed as intrinsic clearance incubated for 60 mins by HPLC analysis; format: ADME, Microsome; conditions: read-out: CLH
# [11] = test system: MCF7; assay: Induction of cell cycle arrest in human MCF7 cells expressing CYP1A1 assessed as accumulation of cells at G0/G1 phase at 1100 nM incubated for 48 hrs by DAPI staining based flow cytometric analysis (reference value: 74+/-2 %); format: functional
# [12] = Stability in mouse liver microsomes assessed as half life incubated for 60 mins by HPLC analysis; format: ADME, Microsome
# [13] = test system: HT-29; assay: Antiproliferative activity against human HT-29 cells assessed as cell growth inhibition incubated for 48 hrs by sulforhodamine B assay; format: functional, cell-based; conditions: HT-29, 48 h
# [14] = Selectivity ratio, ratio of IC50 for antiproliferative activity against human M21 cells to IC50 for antiproliferative activity against human MCF7 cells expressing CYP1A1; format: functional
# [15] = Stability in rat liver microsomes assessed as half life incubated for 60 mins by HPLC analysis; format: ADME, Microsome
# [16] = biological target: T2, Tubulin (Homo sapiens) (UniProt P68371+Q9H4B7+P0DPH7+P68366+Q13509+Q71U36+P04350+Q3ZCM7+P07437+P68363+Q9BQE3+Q6PEY2+Q13885+Q9BVA1+Q9BUF5); assay: Disruption of microtubules in human MCF7 cells expressing CYP1A1 assessed as cytoskeleton disruption at 1305 nM measured after 48 hrs by DAPI staining based fluorescence microscopic analysis; format: cell-based
# [17] = Stability in human liver microsomes assessed as half life incubated for 60 mins by HPLC analysis; format: ADME, Microsome
# [18] = test system: MCF7; assay: Induction of cell cycle arrest in human MCF7 cells expressing CYP1A1 assessed as accumulation of cells at S phase at 1100 nM incubated for 48 hrs by DAPI staining based flow cytometric analysis (reference value: 11+/-1 %); format: functional
# [19] = test system: HT-1080; assay: Antiproliferative activity against human HT-1080 cells transfected with empty vector assessed as cell growth inhibition incubated for 48 hrs by sulforhodamine B assay; format: functional, cell-based; conditions: HT-1080, 48 h
# [20] = test system: HT-1080; assay: Antiproliferative activity against human HT-1080 cells expressing CYP1A1 assessed as cell growth inhibition incubated for 48 hrs by sulforhodamine B assay; format: functional, cell-based; conditions: HT-1080, 48 h
# [21] = Stability in human liver microsomes assessed as intrinsic clearance incubated for 60 mins by HPLC analysis; format: ADME, Microsome; conditions: read-out: CLH
# [22] = test system: MCF7; assay: Induction of cell cycle arrest in human MCF7 cells expressing CYP1A1 assessed as accumulation of cells at G2/M phase at 690 nM incubated for 48 hrs by DAPI staining based flow cytometric analysis (reference value: 16+/-2 %); format: functional
# [23] = biological target: T2, Tubulin (Homo sapiens); assay: Disruption of microtubules in human MCF7 cells expressing CYP1A1 assessed as cytoskeleton disruption at 970 nM measured after 48 hrs by DAPI staining based fluorescence microscopic analysis; format: cell-based
# [24] = test system: MCF7; assay: Induction of cell cycle arrest in human MCF7 cells expressing CYP1A1 assessed as accumulation of cells at S phase at 690 nM incubated for 48 hrs by DAPI staining based flow cytometric analysis (reference value: 11+/-1 %); format: functional
# [25] = test system: MCF7; assay: Induction of cell cycle arrest in human MCF7 cells expressing CYP1A1 assessed as accumulation of cells at G0/G1 phase at 690 nM incubated for 48 hrs by DAPI staining based flow cytometric analysis (reference value: 74+/-2 %); format: functional
# [26] = test system: MCF7; assay: Induction of cell cycle arrest in human MCF7 cells expressing CYP1A1 assessed as accumulation of cells at G0/G1 phase at 30 nM incubated for 48 hrs by DAPI staining based flow cytometric analysis (reference value: 74+/-2 %); format: functional
# [27] = Toxicity in chick embryo xenografted with human […] cells expressing CYP1A1 assessed as mortality at 1 ug, iv incubated for 17 days; format: organism-based, Gallus gallus; conditions: chicken, in vivo, 408 h, dose 1 µg, time 17 day
# [28] = test system: HT-1080; assay: Antitumor activity against human HT-1080 cells xenografted in chick embryo assessed as reduction in tumor wet weight at 1 ug, iv incubated for 17 days by CAM assay; format: functional; design: scale not given: the % may be the effect or the level left; conditions: dose 1 µg, time 17 day
# [29] = Toxicity in chick embryo xenografted with human […] cells assessed as mortality at 1 ug, iv incubated for 17 days; format: organism-based, Gallus gallus; conditions: chicken, in vivo, 408 h, dose 1 µg, time 17 day
# [30] = test system: MCF7; assay: Induction of cell cycle arrest in human MCF7 cells expressing CYP1A1 assessed as accumulation of cells at G2/M phase at 30 nM incubated for 48 hrs by DAPI staining based flow cytometric analysis (reference value: 16+/-2 %); format: functional
# [31] = Toxicity in chick embryo xenografted with human […] cells transfected with empty vector assessed as mortality at 1 ug, iv incubated for 17 days; format: organism-based, Gallus gallus; conditions: chicken, in vivo, 408 h, dose 1 µg, time 17 day
# [32] = test system: MCF7; assay: Induction of cell cycle arrest in human MCF7 cells expressing CYP1A1 assessed as accumulation of cells at S phase at 30 nM incubated for 48 hrs by DAPI staining based flow cytometric analysis (reference value: 11+/-1 %); format: functional
# [33] = test system: HT-1080; assay: Antitumor activity against human HT-1080 cells transfected with empty vector xenografted in chick embryo assessed as reduction in tumor wet weight at 1 ug, iv incubated for 17 days by CAM assay; format: functional; design: scale not given: the % may be the effect or the level left; conditions: dose 1 µg, time 17 day
# [34] = test system: HT-1080; assay: Antitumor activity against human HT-1080 cells expressing CYP1A1 xenografted in chick embryo assessed as reduction in tumor wet weight at 1 ug, iv incubated for 17 days by CAM assay; format: functional; design: scale not given: the % may be the effect or the level left; conditions: dose 1 µg, time 17 day
# [35] = biological target: T2, Tubulin (Homo sapiens); assay: Disruption of microtubules in human MCF7 cells expressing CYP1A1 assessed as cytoskeleton disruption at 65 nM measured after 48 hrs by DAPI staining based fluorescence microscopic analysis; format: cell-based
# [36] = test system: MCF7; assay: Induction of cell cycle arrest in human MCF7 cells expressing CYP1A1 assessed as accumulation of cells at S phase at 145 nM incubated for 48 hrs by DAPI staining based flow cytometric analysis (reference value: 11+/-1 %); format: functional
# [37] = test system: MCF7; assay: Induction of cell cycle arrest in human MCF7 cells expressing CYP1A1 assessed as accumulation of cells at G2/M phase at 145 nM incubated for 48 hrs by DAPI staining based flow cytometric analysis (reference value: 16+/-2 %); format: functional
# [38] = test system: MCF7; assay: Induction of cell cycle arrest in human MCF7 cells expressing CYP1A1 assessed as accumulation of cells at G0/G1 phase at 145 nM incubated for 48 hrs by DAPI staining based flow cytometric analysis (reference value: 74+/-2 %); format: functional
Compound,microsomal CLint [1],Ratio IC50 [2],Ki [3],IC50 [5],Ratio IC50 [6],IC50 [7],Ratio IC50 [8],IC50 [9],microsomal CLint [10],half-life [12],IC50 [13],Ratio IC50 [14],half-life [15],half-life [17],IC50 [19],IC50 [20],microsomal CLint [21],further results
CCCCCN1CCN(c2ccc(S(=O)(=O)Oc3cccc(Cl)c3)cc2)C1=O,11 µL/min/mg,76,600 nM,400 nM,>31,6850 nM,>139,> 12500 nM,12 µL/min/mg,2.17 h,> 12500 nM,>31,1.83 h,4.83 h,> 12500 nM,90 nM,5 µL/min/mg,Activity [4]: 42%; Activity [11]: 45%; Activity [16]: Active; Activity [18]: 13%
CCCCCN1CCN(c2ccc(S(=O)(=O)Oc3cccc(I)c3)cc2)C1=O,15 µL/min/mg,137,190 nM,140 nM,>90,4110 nM,>417,> 12500 nM,24 µL/min/mg,1.55 h,> 12500 nM,>90,1.03 h,1.28 h,> 12500 nM,30 nM,19 µL/min/mg,Activity [22]: 45%; Activity [23]: Active; Activity [24]: 18%; Activity [25]: 37%
CCCCN1CCN(c2ccc(S(=O)(=O)Oc3cc(OC)c(OC)c(OC)c3)cc2)C1=O,77 µL/min/mg,200,140 nM,29 nM,>172,1200 nM,137,2400 nM,77 µL/min/mg,0.3 h,> 5000 nM,83,0.302 h,1.53 h,820 nM,6 nM,15 µL/min/mg,Activity [26]: 38%; Activity [27]: Non-Toxic; Activity [28]: 85%; Activity [29]: Non-Toxic; Activity [30]: 51%; Activity [31]: Non-Toxic; Activity [32]: 11%; Activity [33]: 108%; Activity [34]: 51%
CCCCCN1CCN(c2ccc(S(=O)(=O)Oc3cc(Cl)cc(Cl)c3)cc2)C1=O,12.5 µL/min/mg,152,1200 nM,50 nM,>100,4570 nM,>167,> 5000 nM,9 µL/min/mg,1.85 h,> 5000 nM,>100,2.67 h,2 h,> 5000 nM,30 nM,12 µL/min/mg,Activity [35]: Active; Activity [36]: 17%; Activity [37]: 34%; Activity [38]: 49%
O=c1cc(-c2ccccc2)oc2c1ccc1ccccc12 [ALPHA-NAPHTHOFLAVONE],–,–,50 nM,–,–,–,–,–,–,–,–,–,–,–,–,–,–,–
CCCCN1CCN(c2ccc(S(=O)(=O)Oc3cc(Cl)cc(Cl)c3)cc2)C1=O,90 µL/min/mg,–,–,–,–,–,–,–,29 µL/min/mg,0.257 h,–,–,0.783 h,1.48 h,–,–,16 µL/min/mg,–
CCCCN1CCN(c2ccc(S(=O)(=O)Oc3cccc(Cl)c3)cc2)C1=O,104 µL/min/mg,–,–,–,–,–,–,–,65 µL/min/mg,0.222 h,–,–,0.367 h,2.1 h,–,–,11 µL/min/mg,–

# From ChEMBL document CHEMBL5316344, “Homologation of the Alkyl Side Chain of Antimitotic Phenyl 4-(2-Oxo-3-alkylimidazolidin-1-yl)benzenesulfonate Prodrugs Selectively Targeting CYP1A1-Expressing Breast Cancers Improves Their Stability in Rodent Liver Microsomes” (J Med Chem, 2023)
